Results published in paper PMC8911699, “Biological and Cheminformatics Studies of Newly Designed Triazole Based Derivatives as Potent Inhibitors against Mushroom Tyrosinase” (Molecules, 2022).
pKi: −log10 of the molar value. “Also recorded” adds a separate entry of the source.

Experiments:
mushroom tyrosinase [1] = biological target: T1, mushroom tyrosinase (Agaricus bisporus, UniProt C7FF04); experiment: Mushroom tyrosinase inhibition assay (dopachrome technique, L-DOPA substrate); assay type: biochemical
Description: The inhibition of mushroom tyrosinase was determined by an alteration of the dopachrome technique using L-DOPA as a substrate. The mushroom tyrosinase (EC-232-653-4) was purchased from Sigma Korea. […] After the incubation time, the absorbance was measured at 475 nm using a microplate reader (SpectraMax ABS, Molecular Devices, California, CA, USA) and the inhibition percentage was calculated in relation to the control. […] Each concentration was scrutinized in three independent experiments. IC50 values were calculated by non-linear regression using GraphPad Prism 5.0. The % inhibition of tyrosinase was calculated as follows:Inhibition (%) = [(B−S)/B] ×100 where the B and S are the absorbances of the blank control and normal samples, respectively.
Target sequence in this assay (C7FF04 2-392): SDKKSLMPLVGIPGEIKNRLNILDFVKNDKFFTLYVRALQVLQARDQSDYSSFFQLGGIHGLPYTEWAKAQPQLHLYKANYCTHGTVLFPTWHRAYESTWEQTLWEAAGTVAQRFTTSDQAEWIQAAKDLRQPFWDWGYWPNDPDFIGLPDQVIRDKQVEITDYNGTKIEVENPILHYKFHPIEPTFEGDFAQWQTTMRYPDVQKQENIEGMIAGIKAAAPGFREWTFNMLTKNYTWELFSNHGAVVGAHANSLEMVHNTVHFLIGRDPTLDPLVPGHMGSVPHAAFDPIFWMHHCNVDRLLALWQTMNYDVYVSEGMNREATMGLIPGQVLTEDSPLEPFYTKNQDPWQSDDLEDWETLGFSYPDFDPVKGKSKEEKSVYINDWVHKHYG

mushroom tyrosinase [2] = biological target: T1, mushroom tyrosinase; experiment: Inhibition kinetics (Lineweaver-Burk and secondary plots); assay type: biochemical; design: purchased Sigma Korea EC-232-653-4
Description: To understand the inhibitory mechanism of synthetic compounds on tyrosinase, an inhibition kinetic study was performed. […] The kinetic results of the enzyme expressed by the Lineweaver–Burk plot of 1/V versus 1/[S] for different inhibitor concentrations provided a series of straight lines. […] Additionally, the Km value increased with increasing the concentration of the inhibitor. […] The inhibition constant Ki was computed from Figure 4.
A series of experiments were performed to regulate the inhibition kinetics of 9h by following the already reported methods. The inhibitor concentrations for 9h were 0.00, 0.049, 0.098, and 0.196 µM. Substrate (L-DOPA) concentrations were between 0.0625 to 2 mM in all kinetic studies. Pre-incubation and measurement time were the same as discussed in the mushroom tyrosinase inhibition assay protocol. Maximal initial velocity was obtained from the initial linear portion of absorbance up to five minutes after the addition of enzyme at the 30 s interval. The inhibition type of the enzyme was assayed by Lineweaver–Burk plots of the inverse of velocities (1/V) versus the inverse of substrate concentration 1/[S] mM^−1.
Target sequence in this assay (C7FF04 1-392 limits assumed): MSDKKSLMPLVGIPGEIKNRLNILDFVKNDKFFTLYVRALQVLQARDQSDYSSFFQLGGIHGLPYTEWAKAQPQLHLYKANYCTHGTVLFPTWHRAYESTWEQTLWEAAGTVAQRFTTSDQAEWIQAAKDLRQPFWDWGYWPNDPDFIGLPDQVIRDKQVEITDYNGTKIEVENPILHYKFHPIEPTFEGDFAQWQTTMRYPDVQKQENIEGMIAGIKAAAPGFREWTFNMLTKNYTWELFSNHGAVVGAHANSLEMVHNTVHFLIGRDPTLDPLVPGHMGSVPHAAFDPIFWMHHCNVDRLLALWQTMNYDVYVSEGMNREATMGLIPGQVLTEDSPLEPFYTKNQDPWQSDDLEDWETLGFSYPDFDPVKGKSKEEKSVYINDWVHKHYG

| melting point [°C] | SMILES | response against mushroom tyrosinase inhibition (in words) (mushroom tyrosinase [1]) | inhibition type (mushroom tyrosinase [2]; Lineweaver-Burk plot, Vmax same, Km increased) | pKi (mushroom tyrosinase [2]; from plot of slope versus inhibitor concentration, L-DOPA 0.0625-2 mM, read-out: inhibition constant Ki) |
| --- | --- | --- | --- | --- |
| 220.1 | O=C(CSc1nnc(-c2ccccc2)n1-c1ccc(F)cc1)Nc1ccc(F)cc1 [9e, N-(4-fluorophenyl)-2-(4-(4-fluorophenyl)-5-phenyl-4H-1,2,4-triazol-3-ylthio) Acetamide] | – | – | – |
| 219.3 | O=C(CSc1nnc(-c2ccc(F)cc2)n1-c1ccc(F)cc1)Nc1ccc(Br)cc1 [9c, 2-(4,5-Bis(4-fluorophenyl)-4H-1,2,4-triazol-3-ylthio)-N-(4-bromophenyl) Acetamide] | did not show any response; also recorded: ineffective counter response | – | – |
| 206 | O=C(CSc1nnc(-c2ccccc2)n1-c1ccc(F)cc1)Nc1ccccc1 [9d, 2-(4-(4-Fluorophenyl)-5-phenyl-4H-1,2,4-triazol-3-ylthio)-N-phenylacetamide] | – | – | – |
| 195.3 | O=C(CSc1nnc(-c2ccc(F)cc2)n1-c1ccc(F)cc1)Nc1ccc(F)cc1 [9b, 2-(4,5-Bis(4-fluorophenyl)-4H-1,2,4-triazol-3-ylthio)-N-(4-fluorophenyl) Acetamide] | did not show any response; also recorded: ineffective counter response | – | – |
| 248.9 | O=C(CSc1nnc(-c2ccccc2F)n1-c1ccc(F)cc1)Nc1ccc(Br)cc1 [9i, N-(4-bromophenyl)-2-(5-(2-fluorophenyl)-4-(4-fluorophenyl)-4H-1,2,4-triazol-3-ylthio) Acetamide] | did not show any response | – | – |
| – | O=C(CSc1nnc(-c2ccccc2F)n1-c1ccc(F)cc1)Nc1ccc(F)cc1 [9h, N-(4-fluorophenyl)-2-(5-(2-fluorophenyl)-4-(4-fluorophenyl)-4H-1,2,4-triazol-3-ylthio) Acetamide] | – | competitively inhibits | 7.74 |
